Reference: patent publication US10065990B2, “Cyclic peptide compound, and preparation method, pharmaceutical composition and use thereof” (HANGZHOU GUANYU BIO-MEDICAL CO., LTD, priority 2013, dated 2018)
Like-named read-outs stand apart in the source and are kept apart here.

How the values were obtained:
HDAC7 = molecular target: T1, HDAC7 (Homo sapiens, UniProt Q8WUI4); experiment: HDAC biochemical activity measurement (fluorescent substrate deacetylation);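 note: fluorogenic deacetylation assay using acetyl-lysine substrate at 20 µM, enzyme and compound incubated 30 min at 37 °C, then developer added, fluorescence read at 360/460 nm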; settings: HDAC7; 37° C. 30 minutes
T1 sequence (Q8WUI4 1-952): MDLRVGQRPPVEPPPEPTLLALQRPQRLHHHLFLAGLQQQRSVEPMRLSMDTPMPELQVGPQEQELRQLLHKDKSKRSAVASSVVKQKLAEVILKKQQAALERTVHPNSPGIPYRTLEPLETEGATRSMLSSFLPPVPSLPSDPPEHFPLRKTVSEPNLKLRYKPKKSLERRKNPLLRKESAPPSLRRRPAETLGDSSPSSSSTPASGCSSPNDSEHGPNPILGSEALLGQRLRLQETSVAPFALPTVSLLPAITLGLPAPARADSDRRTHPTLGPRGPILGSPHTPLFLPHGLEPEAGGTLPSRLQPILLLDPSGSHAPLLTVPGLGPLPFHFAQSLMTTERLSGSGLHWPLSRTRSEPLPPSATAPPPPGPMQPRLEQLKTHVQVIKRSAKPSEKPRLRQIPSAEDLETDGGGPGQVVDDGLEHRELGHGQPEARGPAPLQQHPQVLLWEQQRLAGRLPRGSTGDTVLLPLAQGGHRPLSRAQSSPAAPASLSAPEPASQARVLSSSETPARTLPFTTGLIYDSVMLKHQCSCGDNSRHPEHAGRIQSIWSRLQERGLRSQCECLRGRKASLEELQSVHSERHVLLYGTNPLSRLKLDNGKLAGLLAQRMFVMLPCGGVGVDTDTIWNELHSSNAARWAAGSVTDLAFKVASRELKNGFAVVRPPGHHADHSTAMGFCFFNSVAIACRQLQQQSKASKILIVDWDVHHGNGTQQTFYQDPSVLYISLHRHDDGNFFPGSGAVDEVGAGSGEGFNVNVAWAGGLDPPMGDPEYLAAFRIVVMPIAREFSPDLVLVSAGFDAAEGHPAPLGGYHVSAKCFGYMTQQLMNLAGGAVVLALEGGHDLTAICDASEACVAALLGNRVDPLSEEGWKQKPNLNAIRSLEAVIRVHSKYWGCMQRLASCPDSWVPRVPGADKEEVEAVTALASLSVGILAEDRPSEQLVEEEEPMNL

[1] = system: A549 (human lung cancer cells); experiment: MTT cancer cell growth inhibition; format: cell-based; settings: Homo sapiens, A549, 72 h, MTT, 72 hours incubation, read-out: GI50 A54
How it was run: (§1)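 Absorbance at 570 nm of DMSO-dissolved formazan, formed during a 4 h MTT incubation, served as the viability measure. Cells had been exposed 72 h to drug at 10^−5–10^−10 M final; GI50 was calculated from these readings.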

[2] = system: BGC-823 (human gastric cancer cells); experiment: MTT cancer cell growth inhibition; format: cell-based; settings: Homo sapiens, BGC-823, 72 h, MTT, 72 hours incubation, read-out: GI50 BG
How it was run: as §1

[3] = system: Bel-7402 (human hepatoma cells); experiment: MTT cancer cell growth inhibition; format: cell-based; settings: Homo sapiens, Bel-7402, 72 h, MTT, 72 hours incubation, Bel-7402 cells; read-out: GI50 Bel-7402
How it was run: as §1

[4] = system: DU145 (human prostate cancer cells); experiment: MTT cancer cell growth inhibition; format: cell-based; settings: Homo sapiens, DU-145, 72 h, MTT, 72 hours incubation, read-out: GI50 Du1
How it was run: as §1

[5] = system: H1975 (non-small cell lung adenocarcinoma); experiment: MTT cancer cell growth inhibition; format: cell-based; settings: Homo sapiens, NCI-H1975, 72 h, MTT, 72 hours incubation, H1975 cells; read-out: GI50 H1975
How it was run: as §1

[6] = system: HCC827 (human non-small cell lung cancer cells); experiment: MTT cancer cell growth inhibition; format: cell-based; settings: Homo sapiens, HCC827, 72 h, MTT, 72 hours incubation, HCC827 cells; read-out: GI50 HCC827
How it was run: as §1

[7] = system: HT1080 (human fibrosarcoma cells); experiment: MTT cancer cell growth inhibition; format: cell-based; settings: Homo sapiens, HT-1080, 72 h, MTT, 72 hours incubation, read-out: GI50 HT1
How it was run: as §1

[8] = system: Hela (human cervical cancer cells); experiment: MTT cancer cell growth inhibition; format: cell-based; settings: Homo sapiens, HeLa, 72 h, MTT, 72 hours incubation, read-out: GI50 Hela
How it was run: as §1

[9] = system: Huh-7 (human hepatoma cells); experiment: MTT cancer cell growth inhibition; format: cell-based; settings: Homo sapiens, Huh-7, 72 h, MTT, 72 hours incubation, Huh-7 cells; read-out: GI50 Huh-7
How it was run: as §1

[10] = system: K562 (human leukemia cells); experiment: MTT cancer cell growth inhibition; format: cell-based; settings: Homo sapiens, K562, 72 h, MTT, 72 hours incubation, K562 cells; read-out: GI50 K562
How it was run: as §1

[11] = system: KBM-5 (human chronic myelogenous leukemia); experiment: MTT cancer cell growth inhibition; format: cell-based; settings: Homo sapiens, KBM5, 72 h, MTT, 72 hours incubation, KBM-5 cells; read-out: GI50 KBM-5
How it was run: as §1

[12] = system: KBM5-T315I (human chronic myelogenous leukemia); experiment: MTT cancer cell growth inhibition; format: cell-based; settings: Homo sapiens, 72 h, MTT, 72 hours incubation, KBM5-T315I cells; read-out: GI50 KBM5-T315I
How it was run: as §1

[13] = system: MCF-7 (human breast cancer cells); experiment: MTT cancer cell growth inhibition; format: cell-based; settings: Homo sapiens, MCF7, 72 h, 72 hours incubation, read-out: GI50 MCF
How it was run: as §1

[14] = system: MDA-MB-231 (breast cancer cells); experiment: MTT cancer cell growth inhibition; format: cell-based; settings: Homo sapiens, MDA-MB-231, 72 h, read-out: GI50 MDA-MB-231, MTT, 72 hours incubation, MDA-MB-231 cells
How it was run: as §1

[15] = system: MOLT-4 (human acute lymphoblastic leukemia cells); experiment: MTT cancer cell growth inhibition; format: cell-based; settings: Homo sapiens, MOLT-4, 72 h, MTT, 72 hours incubation, read-out: GI50 Mol
How it was run: as §1

[16] = system: N-87 (human gastric cancer cells); experiment: MTT cancer cell growth inhibition; format: cell-based; settings: Homo sapiens, 72 h, MTT, 72 hours incubation, N-87 cells; read-out: GI50 N-87
How it was run: as §1

[17] = system: PANC-1 (Pac-1, human pancreatic cancer cells); experiment: MTT cancer cell growth inhibition; format: cell-based; settings: Homo sapiens, PANC-1, 72 h, MTT, 72 hours incubation, read-out: GI50 PAN
How it was run: as §1

[18] = system: SGC-7901 (human gastric cancer cells); experiment: MTT cancer cell growth inhibition; format: cell-based; settings: Homo sapiens, SGC-7901, 72 h, MTT, 72 hours incubation, SGC-7901 cells; read-out: GI50 SGC-7901
How it was run: as §1

[19] = system: U937 (human leukemia cells); experiment: MTT cancer cell growth inhibition; format: cell-based; settings: Homo sapiens, U-937, 72 h, MTT, 72 hours incubation, read-out: GI50 U93
How it was run: as §1

[20] = system: lncap (prostate cancer cells); experiment: MTT cancer cell growth inhibition; format: cell-based; settings: Homo sapiens, LNCaP, 72 h, MTT, 72 hours incubation, read-out: GI50 lnca
How it was run: as §1

IC50 HDAC7 (HDAC7)	GI50 [1]	GI50 [2]	GI50 [3]	GI50 [4]	GI50 [5]	GI50 [6]	GI50 [7]	GI50 [8]	GI50 [9]	GI50 [10]	GI50 [11]	GI50 [12]	GI50 [13]	GI50 [14]	GI50 [15]	GI50 [16]	GI50 [17]	GI50 [18]	GI50 [19]	SMILES	also measured
no activity	70 nM	50 nM	62 nM	20 nM	29 nM	62 nM	60 nM	90 nM	43 nM	29 nM	92 nM	63 nM	60 nM	43 nM	40 nM	52 nM	60 nM	77 nM	20 nM	C/C=C1\NC(=O)c2ccc(F)c(n2)CNC(=O)C[C@@H](/C=C/CCSC(C)=O)OC(=O)[C@H](C)NC1=O [Example 65]	GI50 [20]: 40 nM
no activity	50 nM	10 nM	62 nM	20 nM	29 nM	62 nM	60 nM	40 nM	43 nM	22 nM	42 nM	29 nM	20 nM	43 nM	40 nM	15 nM	60 nM	57 nM	20 nM	C=C1NC(=O)c2ccc(F)c(n2)CNC(=O)C[C@@H](/C=C/CCSC(C)=O)OC(=O)[C@H](C)NC1=O [Compound 92]	GI50 [20]: 40 nM
no activity			82 nM		52 nM	16 nM			42 nM	38 nM	12 nM	32 nM		39 nM		23 nM		39 nM		C/C=C1\NC(=O)c2ccc(SC)c(n2)CNC(=O)C[C@@H](/C=C/CCS)OC(=O)[C@H](C)NC1=O [Compound 234]	GI50 ([1]; A549 cells): 20 nM; GI50 ([2]; BGC-823 cells): 80 nM; GI50 ([4]; DU145 cells): 50 nM; GI50 ([7]; HT1080 cells): 10 nM; GI50 ([8]; Hela cells): 60 nM; GI50 ([13]; MCF-7 cells): 30 nM; GI50 ([15]; MOLT-4 cells): 30 nM; GI50 ([17]; PANC-1 cells): 30 nM; GI50 ([19]; U937 cells): 20 nM; GI50 ([20]; lncap cells): 20 nM

The remaining lines, values behind:

SMILES	IC50 HDAC7 (HDAC7)	GI50 [1]	GI50 [2]	GI50 [3]	GI50 [4]	GI50 [5]	GI50 [6]	GI50 [7]	GI50 [8]	GI50 [9]	GI50 [10]	GI50 [11]	GI50 [12]	GI50 [13]	GI50 [14]	GI50 [15]	GI50 [16]	GI50 [17]	GI50 [18]	GI50 [19]	also measured
C/C=C1\NC(=O)c2nc(ccc2SC)CNC(=O)C[C@@H](/C=C/CCSC(C)=O)OC(=O)[C@H](CC)NC1=O [Compound 177]	no activity			84 nM		83 nM	33 nM			35 nM	29 nM	80 nM	13 nM		49 nM		37 nM		39 nM		GI50 ([1]; A549 cells): 20 nM; GI50 ([2]; BGC-823 cells): 40 nM; GI50 ([4]; DU145 cells): 60 nM; GI50 ([7]; HT1080 cells): 30 nM; GI50 ([8]; Hela cells): 100 nM; GI50 ([13]; MCF-7 cells): 50 nM; GI50 ([15]; MOLT-4 cells): 60 nM; GI50 ([17]; PANC-1 cells): 20 nM; GI50 ([19]; U937 cells): 60 nM; GI50 ([20]; lncap cells): 10 nM
C/C=C1\NC(=O)c2ccc(F)c(n2)CNC(=O)C[C@@H](/C=C/CCSC(=O)CCCCCC)OC(=O)[C@H](C(C)C)NC1=O [Example 35]	no activity	60 nM	60 nM	51 nM	20 nM	38 nM	51 nM	50 nM	70 nM	46 nM	26 nM	75 nM	59 nM	50 nM	46 nM	40 nM	63 nM	50 nM	61 nM	30 nM	GI50 [20]: 40 nM
C/C=C1\NC(=O)c2ccc(SC)c(n2)CNC(=O)C[C@@H](/C=C/CCSC(=O)CCCCC)OC(=O)[C@H](C(C)C)NC1=O [Compound 155]	no activity			41 nM		23 nM	23 nM			38 nM	75 nM	35 nM	56 nM		11 nM		32 nM		33 nM		GI50 ([1]; A549 cells): 40 nM; GI50 ([2]; BGC-823 cells): 40 nM; GI50 ([4]; DU145 cells): 50 nM; GI50 ([7]; HT1080 cells): 90 nM; GI50 ([8]; Hela cells): 40 nM; GI50 ([13]; MCF-7 cells): 50 nM; GI50 ([15]; MOLT-4 cells): 90 nM; GI50 ([17]; PANC-1 cells): 40 nM; GI50 ([19]; U937 cells): 40 nM; GI50 ([20]; lncap cells): 40 nM
C/C=C1\NC(=O)c2nc(ccc2F)CNC(=O)C[C@@H](/C=C/CCSC(=O)CCCCCCC)OC(=O)[C@H](Cc2ccccc2)NC1=O [Example 69]	no activity	30 nM	50 nM	74 nM	40 nM	43 nM	74 nM	70 nM	80 nM	35 nM	41 nM	81 nM	29 nM	20 nM	35 nM	30 nM	52 nM	70 nM	36 nM	40 nM	GI50 [20]: 30 nM
